# Measured values published in patent US20260266848A1, “COMPOSITIONS AND METHODS FOR DIAGNOSING AND TREATING DYSTONIA” (Duke University, priority 2023, published 2026).
# Tested on: DYT1 MEF secreted EVs
# Experiment: Small RNAseq of miRNAs in EVs secreted by DYT1 vs WT MEFs, ritonavir 24 h
# Type: cell-based, mouse
# Details: 24 hour culture exposure
# Experimental: RNA was isolated from the DYT1 vs WT mouse embryonic fibroblast (MEF) secreted EVs, using the same cultures used in proteomic experiments. Small RNA sequencing was performed using a Illumina Novoseq 500. […] The number of independent culture preparations per genotype was three (N=3). The EV fraction was divided and separately analyzed for proteins and RNAs. […] Genotype-disrupted miRNAs and genotype-directionality as identified in FIG. 6A are indicated by blue and red dots in FIG. 6B. […] Blue and red data points of FIG. 6C identify genotype effect and directionality originally as in FIG. 6A.
smiles,measurement,setting,value
CC(C)c1nc(CN(C)C(=O)N[C@H](C(=O)N[C@@H](Cc2ccccc2)C[C@H](O)[C@H](Cc2ccccc2)NC(=O)OCc2cncs2)C(C)C)cs1 [ritonavir],effect on genotype-disrupted subset of EV miRNAs,,strong correlation of corrective effects
same,effect on genotype-disrupted subset of EV miRNAs,listed as Ritonavir,stronger correlation of corrective effects
